# From article PMC9768625, “Is the vesicular nucleotide transporter a molecular target of eicosapentaenoic acid?” (Frontiers in Pharmacology, 2022)
# Target: T1, V-ATPase (vacuolar H^+-ATPase), purified from chromaffin granules (Bos taurus, UniProt P23956+Q29466)
# T1 construct: gene ATP6V0C; purified chromaffin granule V-ATPase in reconstituted proteoliposomes (multi-subunit complex; subunits A, B and c indicated)
# Test: colorimetric Mg-ATPase (Pi release) assay of proteoliposomes containing purified V-ATPase, con B at […]
# Assay type: biochemical
# Settings: proteoliposomes with purified v-atpase
smiles,measurement,value
"C/C=C/[C@H]1O[C@@](O)([C@@H](C)[C@H](O)[C@H](C)[C@H]2OC(=O)/C(OC)=C/C(C)=C/[C@@H](C)[C@@H](O)[C@@H](C)[C@@H](O)[C@H](C)C/C(C)=C/C=C/[C@@H]2OC)C[C@@H](O[C@H]2C[C@@H](O)[C@H](OC(N)=O)[C@@H](C)O2)[C@@H]1C [con B, concanamycin B]",% of ATPase activity sensitive at 1 μM,> 95 % of ATPase activity sensitive at 1 μM
